Consider 21 compounds from ChEMBL document CHEMBL1125922, “Peptide leukotrienes: current status of research” (J Med Chem, 1991).

A word on the IC50: it is the concentration needed to halve the response being measured. Usually pKB stands for −log10 of the KB, conventionally taken in molar units. Lower therefore signals a high KB. One may read the Ki as the dissociation constant of the complex between target and ligand, obtained from inhibition or displacement.

SMILES strings stand for the structures.

In test [1] the target is T1, Cysteinyl leukotriene receptor 1 (Cavia porcellus, UniProt Q2NNR5).
T1 sequence (Q2NNR5 whole entry): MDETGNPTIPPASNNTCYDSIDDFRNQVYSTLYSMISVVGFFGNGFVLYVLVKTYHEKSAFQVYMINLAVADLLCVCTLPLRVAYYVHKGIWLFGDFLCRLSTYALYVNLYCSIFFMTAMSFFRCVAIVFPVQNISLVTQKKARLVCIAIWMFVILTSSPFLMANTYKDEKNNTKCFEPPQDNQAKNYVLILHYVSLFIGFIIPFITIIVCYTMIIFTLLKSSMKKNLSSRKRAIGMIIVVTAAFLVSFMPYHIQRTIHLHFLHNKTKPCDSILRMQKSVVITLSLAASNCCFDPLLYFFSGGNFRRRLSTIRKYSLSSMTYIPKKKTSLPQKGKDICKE
The test can be described thus: Compound was evaluated for its ability to displace [3H]LTD4 from Cysteinyl leukotriene D4 receptor in guinea pig lung membranes. The test is classed as cell membranes, Membrane.

The species entered for test [2] is Cavia porcellus. The test can be described thus: (§1) Antagonistic activity against LTD4 induced contraction in guinea pig trachea. The test is classed as functional.
The species entered for test [3] is Cavia porcellus. The test is described as §1. Conditions: for Kb: read-out: pA2 (converted). The test is classed as functional, organism-based.
The species named for the next test is Homo sapiens. Put plainly: Antagonistic activity against LTD4 induced contraction in human bronchus. In kind it is functional.
The target of test [4] is T1, Cysteinyl leukotriene receptor 1. Put plainly: Compound was evaluated for its ability to displace [3H]LTD4 from LTD4 receptor in guinea pig lung membranes. In kind it is cell membranes, Membrane.
Test [5] is filed under the species Cavia porcellus. Put plainly: Antagonistic activity against LTD4 induced contraction in guinea pig lung parenchymal strips. The following applies: Lung parenchyma, read-out: pA2 (converted). In kind it is functional.
For test [6], the species on record is Cavia porcellus. The test can be described thus: Antagonistic activity against LTD4 induced contraction in guinea pig ileum. The test is classed as functional.

In test [1], `CCCCC/C=C/C\C=C/C=C/C=C/[C@@H](Sc1ccc2c(=O)cc(C(=O)O)oc2c1)[C@H](O)CCCC(=O)O` returned a half-inhibitory concentration (IC50) of 100 nM.
Consider `O=C(Nc1cccc2c(=O)cc(-c3nnn[nH]3)oc12)c1ccc(OCCCCc2ccccc2)cc1`, for which the pKB in the test listed under Cavia porcellus [2] stood at 7.5.
`O=C(O)CCS[C@@H](CC(=O)O)c1ccccc1CCCCCCCCc1ccccc1`: affinity in test [1] was put at a Ki of 60 nM. Further, the pKB in the test filed under Cavia porcellus [2] turned out to be 7.6.
In the case of `CCCCCCCCC/C=C\C=C\[C@@H](SCCC(=O)O)[C@@H](O)c1cccc(-c2nnn[nH]2)c1`, the Kb in the test listed under Cavia porcellus [3] is 7.94 nM.
In the test filed under Homo sapiens, `CCC(CC)(CC(=O)Nc1cccc(/C=C/c2nc(C3CCC3)cs2)c1)C(=O)O` returned a pKB of 9.3.
For `CCCc1c(OCCCOc2cc(NC(=O)c3nn[nH]n3)c(C)cc2Cl)ccc(C(C)=O)c1O` [CGP-35949], the Kb in the test filed under Cavia porcellus [3] is 39.8 nM.
As to `CCCc1c(OCC(O)COc2ccc3c(=O)cc(C(=O)O)oc3c2CCC)ccc(C(C)=O)c1O` (stereo unspecified) [FPL-55712], the Kb in the test filed under Cavia porcellus [3] is 200 nM.
Take `COc1cc(C(=O)NS(=O)(=O)c2ccccc2)ccc1Cn1ncc2ccc(NC(=O)OC3CCCC3)cc21` [ICI-198615]: the Kb in the test listed under Cavia porcellus [3] was 0.0794 nM. The Ki in test [4] is 0.3 nM.
Consider `CCCc1c(OCCCS(=O)(=O)c2ccc(C(=O)CCC(=O)O)cc2)ccc(C(C)=O)c1O` [L-648051], for which, in the test listed under Cavia porcellus [3], the Kb is 50.1 nM.
On to `CCCc1c(OCCCSc2ccc([C@@H](O)[C@H](C)CC(=O)O)cc2)ccc(C(C)=O)c1O` [L-649923], for which the Kb in the test filed under Cavia porcellus [3] is 63.1 nM. Besides, the affinity in test [4], expressed as Ki, was 400 nM.
`CCCc1c(COc2ccc(Cc3nnn[nH]3)cc2)ccc(C(C)=O)c1O` [LY-163443] had a pKB in the test filed under Cavia porcellus [2] of 7.5.
Still for that read-out and setting: the figure for `CCCc1c(OCCCCc2nnn(CCCCc3nnn[nH]3)n2)ccc(C(C)=O)c1O` [LY-203647] is 6.4.
`CN(C)C(=O)CCSC(SCCC(=O)O)c1cccc(/C=C/c2ccc3ccc(Cl)cc3n2)c1` (stereo unspecified) [MK-571] registered a Ki in test [1] of 0.2 nM. The pKB in the test listed under Cavia porcellus [2] came to 9.3.
`O=C(O)CCS[C@H](c1ccccc1CCCCCCCCc1ccccc1)[C@@H](O)C(=O)O` [POBILUKAST]: the Kb in the test filed under Cavia porcellus [3] was 2.51 nM.
Consider `c1ccc(Cc2nn[nH]n2)c(COc2ccc(OCc3ccc4ccccc4n3)cc2)c1` [RG-12525], for which, in the test listed under Cavia porcellus [5], the Kb is 3.98 nM.
`O=S(=O)(Nc1cccc(OCc2ccc3ccccc3n2)c1)C(F)(F)F` [RITOLUKAST] yielded a pKB in the test filed under Cavia porcellus [2] of 7.8.
Regarding `CCCc1c(OCCCOc2ccc3c(c2CCC)OC(C)(CCC(=O)O)CC3=O)ccc(C(C)=O)c1O` (stereo unspecified) [SC-39070], the pKB in the test listed under Cavia porcellus [6] came out at 8.2.
For `O=C(O)c1ccccc1Nc1cccc(OCc2ccc3ccccc3n2)c1` [SR-2640], the negative-log KB (pKB) in the test filed under Cavia porcellus [2] is on record as 8.7.
Turning to `CCCc1c(OCCCCc2nnn[nH]2)ccc(C(C)=O)c1O` [TOMELUKAST], the Ki in test [4] was […]. The compound further yielded a negative-log KB (pKB) in the test listed under Cavia porcellus [2] of 6.9.
As to `CCCc1c(OCCCSc2nnc(SCC(=O)O)s2)ccc(C(C)=O)c1O` [YM-16638], inhibition in the test filed under Cavia porcellus [3] was half-maximal at 160 nM (IC50). This counts as sub-micromolar.
As for `COc1cc(C(=O)NS(=O)(=O)c2ccccc2C)ccc1Cc1cn(C)c2ccc(NC(=O)OC3CCCC3)cc12` [ZAFIRLUKAST], the negative logarithm of the KB (pKB) in the test listed under Cavia porcellus [2] came out at 9.5.
